The results in this text go back to patent publication US12528802B2, “Heterocyclic compound” (Takeda Pharmaceutical Company Limited, priority 2019, dated 2026).

In the assay the target is T1, glucosylceramide synthase (Homo sapiens, UniProt Q16739).
T1 construct: made in house; host or cells: Expi293F cells (transient expression, pcDNA3.3-TOPO vector); microsome fraction used as enzyme source
T1 sequence (Q16739 1-394): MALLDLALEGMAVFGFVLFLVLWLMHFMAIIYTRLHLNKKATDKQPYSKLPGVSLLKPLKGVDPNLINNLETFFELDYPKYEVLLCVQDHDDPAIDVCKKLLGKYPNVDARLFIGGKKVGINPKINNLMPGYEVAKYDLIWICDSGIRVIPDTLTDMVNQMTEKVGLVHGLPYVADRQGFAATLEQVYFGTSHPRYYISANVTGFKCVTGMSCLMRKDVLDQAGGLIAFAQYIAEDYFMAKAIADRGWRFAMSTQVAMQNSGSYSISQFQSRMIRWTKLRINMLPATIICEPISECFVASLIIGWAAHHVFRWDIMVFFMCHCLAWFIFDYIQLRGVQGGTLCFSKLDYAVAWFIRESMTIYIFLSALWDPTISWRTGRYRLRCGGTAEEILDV
Briefly: Glucosylceramide synthase (GCS) enzyme assay, microsome fraction, C8 glucosylceramide quantified by Rapidfire MS/MS. The class given is biochemical. The following applies: test compound 10 μM; 1.7 μM UDP-glucose, 3 μM C8 ceramide; room temperature 60 min; read-out: GCS enzyme inhibitory rate at 10 μM (%) (% of control). In outline:
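Test compound, 10 μM final, was run against human GCS from transfected Expi293F microsome fractions, using substrate solution of 6 μM C8 ceramide (in DOPC liposomes) plus 3.4 μM UDP-glucose, pH 7.5 Tris buffer, 60 min, room temperature. Product C8 glucosylceramide measured by Rapidfire MS/MS against an internal standard, % inhibition referenced to no-enzyme and DMSO wells.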
On to `CS(=O)(=O)c1ccc(N2Cc3cnn(-c4ccccc4OCC(F)(F)F)c3C2)nc1` [Example 215, 5-[5-(methanesulfonyl)pyridin-2-yl]-1-[2-(2,2,2-trifluoroethoxy)phenyl]-1,4,5,6-tetrahydropyrrolo[3,4-c]pyrazole], for which the inhibition at 10 µM was determined as 93%.
The result for `N#Cc1ccc(N2Cc3cnn(-c4ccccc4OCC(F)(F)F)c3C2)nc1` [Example 216, 6-{1-[2-(2,2,2-trifluoroethoxy)phenyl]-4,6-dihydropyrrolo[3,4-c]pyrazol-5(1H)-yl}pyridine-3-carbonitrile] reads 98%; that for `CN(C)C(=O)c1ccc(N2Cc3cnn(-c4ccccc4OCC(F)(F)F)c3C2)cc1` [Example 217, N,N-dimethyl-4-{1-[2-(2,2,2-trifluoroethoxy)phenyl]-4,6-dihydropyrrolo[3,4-c]pyrazol-5(1H)-yl}benzamide], 98%; that for `N#CC1(c2ccc(N3Cc4c(ccnc4-c4ccc(F)cc4OCC(F)(F)F)C3=O)cc2)CCOCC1` [Example 218, 4-(4-{4-[4-fluoro-2-(2,2,2-trifluoroethoxy)phenyl]-1-oxo-1,3-dihydro-2H-pyrrolo[3,4-c]pyridin-2-yl}phenyl)oxan-4-carbonitrile], 99%.
On to `O=C1c2ccnc(-c3ccc(F)cc3OCC(F)(F)F)c2CN1c1ccc(C2(O)CCOCC2)c(F)c1` [Example 219, 2-[3-fluoro-4-(4-hydroxyoxan-4-yl)phenyl]-4-[4-fluoro-2-(2,2,2-trifluoroethoxy)phenyl]-2,3-dihydro-1H-pyrrolo[3,4-c]pyridin-1-one], for which the inhibition at 10 µM is 98%.
Next, `O=C1c2ccnc(-c3ccc(F)cc3OCC(F)(F)F)c2CN1c1ccc(C2(O)COC2)c(F)c1` [Example 220, 2-[3-fluoro-4-(3-hydroxyoxetan-3-yl)phenyl]-4-[4-fluoro-2-(2,2,2-trifluoroethoxy)phenyl]-2,3-dihydro-1H-pyrrolo[3,4-c]pyridin-1-one]: 89%.
The result for `CC(C)(C)[Si](C)(C)OC1(c2ccc(N3Cc4c(ccnc4-c4ccccc4OCC(F)(F)F)C3=O)cc2)CC1` [Example 221, 2-[4-(1-{[tert-butyl(dimethyl)silyl]oxy}cyclopropyl)phenyl]-4-[2-(2,2,2-trifluoroethoxy)phenyl]-2,3-dihydro-1H-pyrrolo[3,4-c]pyridin-1-one] reads 99%; that for `O=C1c2ccnc(-c3ccccc3OCC(F)(F)F)c2CN1c1ccc(C2(O)CC2)cc1` [Example 222, 2-[4-(1-hydroxycyclopropyl)phenyl]-4-[2-(2,2,2-trifluoroethoxy)phenyl]-2,3-dihydro-1H-pyrrolo[3,4-c]pyridin-1-one], 100%.
The result for `CC(C)(C)[Si](C)(C)OC1(c2ccc(N3Cc4c(ccnc4-c4ccc(F)cc4OCC(F)(F)F)C3=O)cc2)CC1` [Example 224, 2-[4-(1-{[tert-butyl(dimethyl)silyl]oxy}-cyclopropyl)phenyl]-4-[4-fluoro-2-(2,2,2-trifluoroethoxy)phenyl]-2,3-dihydro-1H-pyrrolo[3,4-c]pyridin-1-one] reads 99%; that for `O=C1c2ccnc(-c3ccc(F)cc3OCC(F)(F)F)c2CN1c1ccc(C2(O)CC2)cc1` [Example 225, 4-[4-fluoro-2-(2,2,2-trifluoroethoxy)phenyl]-2-[4-(l-hydroxycyclopropyl)phenyl]-2,3-dihydro-1H-pyrrolo[3,4-c]pyridin-1-one], 94%.
`O=C1c2ccnc(-c3ccc(F)cc3OCC(F)(F)F)c2CN1c1ccc(C2(F)COC2)cc1` [Example 226, 2-[4-(3-fluorooxetan-3-yl)phenyl]-4-[4-fluoro-2-(2,2,2-trifluoroethoxy)phenyl]-2,3-dihydro-1H-pyrrolo[3,4-c]pyridin-1-one]: the inhibition at 10 µM turned out to be 96%.
